Results taken from ChEMBL document CHEMBL3507680, “University of Dundee, Gates Library screen for HepG2 cell viability”.

Test: Human HepG2 cell viability assay in 384 well format
Assay type: toxicity, cell-based
Design: dose 125 nL, time 70.5 hour; concentration not given beside the values
Details: HepG2 cells, read-out: Inhibition

| SMILES | cytotoxicity at 70.5 h |
| --- | --- |
| CC(=O)N1CCC(Cc2cnc(-c3c(C)n[nH]c3C)cn2)C1 (stereo not drawn) | -13.1% |
| COc1ccc(CN2CCCCCC2c2cccs2)c(O)c1 (stereo not drawn) | -7.17% |
| CC(C)CC(NC(=O)CN(C)C(=O)c1ccco1)c1cccs1 (stereo not drawn) | -9.94% |
| CN(C)C(=O)c1cccc(CCNS(C)(=O)=O)c1 | -2.26% |
| Cn1cnnc1C1CCCN(C(=O)c2ccccn2)C1 (stereo not drawn) | 16% |
| COCCN(Cc1ccc(F)cc1Cl)C(=O)c1ccncc1 | -6.63% |
| CCCC(=O)N1CCCC1(C)c1nc(C)no1 (stereo not drawn) | -14.9% |
| Cc1ccc(C(=O)N2Cc3c(CN(C)C)nn(C)c3C2)cc1C | 4.85% |
| CS(=O)(=O)c1cn[nH]c1C1CCCN1C(=O)c1cccnc1 (stereo not drawn) | -2.09% |
| CC1CCN(C[C@H]2CN3CC[C@H]2C[C@@H]3CNC(=O)Nc2ccsc2)CC1 | 10.5% |
| Cc1cc(C)c2cc(CNCc3ccco3)c3nn(C)c(=O)n3c2c1 | 19.9% |
| Cc1cc(-c2cnc(N3CCN(C)CC3)nc2-c2ccc(C)s2)on1 | 6.38% |
| CCn1c(C(=O)N2CCCN(CC(N)=O)CC2)cc2ccccc21 | -3.29% |
| CC(C)Cc1cc(CN2C[C@H]3CC[C@@H]2CN(Cc2cscn2)C3)n[nH]1 | 12.5% |
| CC(C)c1ccc(OCn2ccc(C(=O)N3CCCC3)n2)cc1 | -4.33% |
| CC(=O)c1c(F)cccc1N1CCC(C(N)=O)CC1 | -1.92% |
| COc1ccc(NC(=O)N2CCCC2c2ccncc2)cn1 (stereo not drawn) | -11.6% |
| OCCN1CCC(CNCc2ccc(Br)cc2)CC1 | -1.11% |
| COc1cccc(-n2cc(CN(C)C(=O)c3cnc(O)cn3)cn2)c1 | -9% |
| Cc1c(Cc2ccccc2)c(O)nc2nc(N3CCOCC3)nn12 | -8.68% |
| c1coc(CN2CCC3(CC2)COC(COCC2CC2)C3)c1 (stereo not drawn) | 15.1% |
| Cc1cc(C(=O)N2CCOC(c3nc(C(C)C)n[nH]3)C2)c(C)s1 (stereo not drawn) | -4.17% |
| Cc1[nH]c(=O)[nH]c(=O)c1CC(=O)N1CCCN(CC2CC2)C(C(C)C)C1 (stereo not drawn) | 0.527% |

| SMILES | cytotoxicity at 70.5 h |
| --- | --- |
| COCc1cnc2n1CCN(C(=O)c1cnc3ccccc3c1)C2C (stereo not drawn) | -9.53% |
| CN(Cc1ccc(O)cc1)C(=O)NC1CCCN(c2ncccn2)C1 (stereo not drawn) | -3.14% |
| Cc1noc(CS(=O)(=O)CC(=O)NC(C)c2ccccc2)n1 (stereo not drawn) | -12.5% |
| Cc1ccc(NC(C)C(=O)NCc2cccs2)cc1C (stereo not drawn) | 18% |
| CCC(=O)Nc1ccc(N2CCC(OC)CC2)c(C(F)(F)F)c1 | -4.77% |
| COCC1CN(C(=O)Cc2ccc(F)cc2)Cc2ccnn2C1 (stereo not drawn) | -5.52% |
| COc1cccc(-c2ncc(CN3CC[C@H]4CC[C@@H](C3)N4)s2)c1 | 9.35% |
| CCOc1ccc(CC(CNC(=O)c2ccoc2)C(N)=O)cc1 (stereo not drawn) | 49.1% |
| COc1ccc2c(c1)C(C(=O)NCCN1CCNC1=O)CC(=O)N2 (stereo not drawn) | 16.8% |
| CC(C)CCNC(=O)Cc1cnc(-n2cccc2)s1 | -21% |
| Cc1cccc(C2(O)CCN(Cc3ccccc3N3CCCC3)CC2)c1 | 16.9% |
| Cc1noc(C)c1CNC(C)c1ccc(S(=O)(=O)N(C)C)cc1 (stereo not drawn) | -2.42% |
| Cc1nn(C)c(N(C)C)c1CNCc1cccnc1 | 16.2% |
| CCn1cnnc1CN(C)C(=O)C1CCC(=O)N(CC2CCCCC2)C1 (stereo not drawn) | -6.42% |
| CC(O)CN1CCC(CNCc2cccc(Br)c2)CC1 (stereo not drawn) | 24.8% |
| O=C1NCC[C@]12CN(Cc1ccsc1)C[C@H]2c1ccccc1 | -4.93% |
| C1CC(N2C[C@@H]3COC[C@]3(COCC3CCOCC3)C2)C1 | -1.94% |
| CCc1cnc(CN(C)C2CCN(CCc3ccccn3)C2)o1 (stereo not drawn) | 10.2% |
| CN(C)[C@@H]1CCN(c2ncccn2)[C@H]1Cc1ccccc1 | -6.06% |
| COc1cc2ncn(Cc3ncc[nH]3)c(=O)c2cc1OC | -23.4% |
| Cc1ncc(CNC(=O)CCOc2ccccc2)c(C2CCCN2C)n1 (stereo not drawn) | -8.4% |
| COCCN1CCCC2(CCN(c3cccc(C(F)(F)F)n3)C2)C1=O (stereo not drawn) | -9.08% |
| O=C(NCC1CCCN(Cc2cccc3nonc23)C1)c1ccc[nH]1 (stereo not drawn) | 3.08% |

| SMILES | cytotoxicity at 70.5 h |
| --- | --- |
| N#Cc1ccsc1NC(=O)CCN1CCn2c(nnc2C2CC2)C1 | -7.52% |
| COC(C)C(=O)Nc1cc(C(=O)N2CCSCC2)ccc1C (stereo not drawn) | 0.013% |
| CCc1nccn1CC(=O)Nc1cccc(C(=O)OC)c1 | -5.31% |
| CSCc1cc(F)ccc1CNCc1cccnc1 | -6.28% |
| c1ccc(OCc2ccncc2)c(CNC2CCc3ncnn3C2)c1 (stereo not drawn) | 17.2% |
| CCCNC(c1cccnc1)c1ccc(F)cc1F (stereo not drawn) | 42.9% |
| CN(CC1CCN(CCO)CC1)CC(O)c1ccc(F)cc1F (stereo not drawn) | -3.94% |
| CN1CC(=O)N(c2cnn(C)c2)CC12CCN(Cc1ccccc1)C2 (stereo not drawn) | 0.248% |
| CN(C)C[C@]12COC[C@H]1CN(Cc1ccccn1)C2 | -8.89% |
| CCCN(Cc1cccc(OCCO)c1)Cc1ccccc1OC | 5.31% |
| CC(C)C(=O)N1CCC(NC2CCSCC2)C1 (stereo not drawn) | -4.83% |
| CCOc1ccc(C(=O)N(Cc2cnn(C)c2)C(C)C)cc1 | -1.86% |
| O=C1CNc2ncnc(NCc3cccs3)c2N1 | -5.96% |
| O=C(c1ccco1)N1CC[C@@H]2O[C@H](COCCN3CCCC3)CC[C@@H]21 | 10.5% |
| Cc1noc2nc(C3CCCN(Cc4cccnc4)C3)cc(C(F)F)c12 (stereo not drawn) | -3.71% |
| COC[C@]12COC[C@H]1CN(S(=O)(=O)c1cccnc1)C2 | -13% |
| O=S(=O)(CCCc1ccccc1)Cc1nnnn1C1CC1 | -8.42% |
| CCOc1cc(F)ccc1NS(=O)(=O)c1cc(C)c(C(=O)O)s1 | -8.13% |
| Cn1nccc1-c1ncc2c(c1C(=O)O)CCN(Cc1ccncc1)C2 | -0.712% |
| NC(=O)c1cccc(CC2CCN(C(=O)Cn3cnnn3)C2)c1 (stereo not drawn) | -10.5% |
| COCc1nc(C(=O)N2CCCC2c2ccncc2)cs1 (stereo not drawn) | -1.03% |
| CC(C)(C)c1nc(CNc2ccccc2SCCC(N)=O)cs1 | -107% |
| COC1CCN(CCNC(=O)NC(C)c2cccc(Cl)c2)CC1 (stereo not drawn) | -0.888% |

| SMILES | cytotoxicity at 70.5 h |
| --- | --- |
| O=C(NCc1cccs1)NCC(O)c1ccoc1 (stereo not drawn) | -3.33% |
| CC(C(=O)Nc1ccc(N2CCCC2)nc1)n1cncn1 (stereo not drawn) | -12.1% |
| Cc1cc(=O)c2ccccc2n1CC1CCN(C(C)C)C1 (stereo not drawn) | -1.13% |
| CC(C)CN(Cc1ccc(O)c(C(=O)O)c1)Cc1ccccn1 | 5.47% |
| Cc1ccc(CN2CC[C@@H]3[C@@H](CO[C@H]3CN3CCN(C)CC3)C2)s1 | 14.3% |
| COc1cc(C(=O)NCc2ccc3c(c2)CCCN3C)cc(OC)c1Br | -8.61% |
| Cc1cccc(C(=O)N2CCn3cc(CN4CCCCC4)nc3C2)n1 | -10.3% |
| COc1ccc(NC(=O)N2CCCC2c2ccco2)c(OC)c1 (stereo not drawn) | 10.8% |
| CNC(=O)COc1ccc(CNCc2c(C)nn(C)c2N(C)C)cc1 | -0.911% |
| COc1ncccc1C(=O)NC1CCOc2ccccc21 (stereo not drawn) | -6.62% |
| OC1=C2C(=Nc3n[nH]c(O)c3C2c2ccco2)CCC1 (stereo not drawn) | -9.2% |
| COc1ccc(Oc2ccc(CNC(=O)C3CCS(=O)(=O)C3)cn2)cc1 (stereo not drawn) | -6.05% |
| CCCc1nc(Cn2c(=O)n(C)c3ccccc32)no1 | -6.48% |
| COc1cccc2c1OCC(C(=O)N1Cc3ccccc3C1)C2 (stereo not drawn) | -1.1% |
| Cc1ccc(CN2C(=O)CC[C@]23CC[C@@H](NC2CCOC2)CC3)cc1 (stereo partly drawn) | -1.41% |
| CC(C)c1cc(-c2cnn(C)c2C2CC2)c(C#N)c(N)n1 | -0.849% |
| O=C(NCCc1ccc(Cl)s1)NCc1nnc2n1CCC2 | 8.18% |
| O=S(=O)(c1ccc(Cl)s1)N1CCN(Cc2nc(-c3ccco3)cs2)CC1 | -13.8% |
| CCC[C@H]1CN(CCS(C)(=O)=O)C[C@@H]1NC(=O)c1ccccc1F | -2.49% |
| Cc1ccc(C(=O)N2CCO[C@H]3[C@@H](OCc4ccccn4)CC[C@@H]32)o1 | -19.5% |
| CC(c1cc(F)ccc1F)N(C)Cc1nc2c(cnn2C)c(=O)[nH]1 (stereo not drawn) | 10.4% |
| Cc1ccsc1CN(CCCC(F)(F)F)Cc1ccccn1 | -10.1% |
| Cc1cccc(CN2CCc3[nH]nc(C(=O)N4CCNC(=O)C4)c3C2)n1 | -10.5% |

| SMILES | cytotoxicity at 70.5 h |
| --- | --- |
| O=C(CN1C[C@H]2CC[C@@H]1CN(Cc1ccccn1)C2)Nc1ccccc1 | -6.28% |
| CCc1nc(CC)n(CC(=O)NCc2cccc(C)c2)n1 | -6.53% |
| O=C(c1cncc(Br)c1)N1CCCc2c(F)cc(F)cc21 | -3% |
| Cc1ccsc1CN(Cc1cccnc1)C1CC(C)(C)NC(C)(C)C1 | 5.95% |
| Cc1cc(C(=O)N2C[C@H]3CC[C@@H]2CN(Cc2ccccn2)C3)nc(C)n1 | -0.674% |
| COCCN(C)CC(=O)N1C[C@H]2CC[C@@H]1CN(C(=O)c1ccncc1)C2 | -10.1% |
| O=C(c1ccncc1)N1CCCC(c2cc(C(F)F)n3ncnc3n2)C1 (stereo not drawn) | -3.18% |
| CCCNC(=O)CN1CCN(Cc2csc(C(C)(C)C)n2)CC1 | 4.04% |
| N#Cc1ccc(N2CCCC2Cn2cccn2)nc1 (stereo not drawn) | -8.46% |
| CSCc1cccc(C(=O)N2CCN(CC(C)O)CC2)c1 (stereo not drawn) | -14.6% |
| CCS(=O)(=O)N1CCN(Cc2cccnc2)c2nc(C)ccc2C1 | 5.16% |
| COC(=O)c1ccc2ccn(CC3CCNC3)c(=O)c2c1 (stereo not drawn) | -1.63% |
| Cc1cc(CN2CCN(C(=O)c3sccc3C(C)C)CC2)no1 | -0.556% |
| Cc1cc(C)c(C(=O)NC(c2nnc3n2CCNCC3)C(C)C)c(C)c1 (stereo not drawn) | -5.04% |
| CCc1nc(CN2CCc3c(ncn3C3CC3)C2)cs1 | -17% |
| CC(C)C(=O)N1CCN(C(=O)N(C)C)CC2(CC(=O)N(C)C2)C1 (stereo not drawn) | 37.2% |
| c1ccc(NCc2cn3c(n2)CN(Cc2ccoc2)CC3)nc1 | -0.75% |
| CNC(=O)C1CCCCN1C(=O)c1cn(CCOC)c2ccccc12 (stereo not drawn) | 0.571% |
| Cc1csc(CNC(=O)NC(C)c2ccc3c(c2)OCCO3)n1 (stereo not drawn) | 5.07% |
| c1ccc(CN2CC[C@@H]3O[C@@H](COCCN4CCCC4)CC[C@@H]32)nc1 | -13.6% |
| Cc1cnn(CCC(=O)N2CCN(c3ncccc3Cl)CC2)c1 | -0.781% |
